Assay results published in PubChem BioAssay AID504687 (Sanford-Burnham Center for Chemical Genomics, 2011).
Where “and” joins values, the source holds several entries; their conditions need not be identical. Equal entries are not always repeated. Calls of active or inactive are those of the source. How the calls were made is not given here.

Molecular target: Ubiquitin-conjugating enzyme E2 N (Homo sapiens) (UniProt P61088)
Test: analogue potency against UBC13 ubiquitin chains – biochemical, TR-FRET, SAR follow-up (AID 504687)
Conditions: UBC13 polyubiquitin formation

Chain of Ubiquitin-conjugating enzyme E2 N (Homo sapiens) (P61088 whole entry, looked up): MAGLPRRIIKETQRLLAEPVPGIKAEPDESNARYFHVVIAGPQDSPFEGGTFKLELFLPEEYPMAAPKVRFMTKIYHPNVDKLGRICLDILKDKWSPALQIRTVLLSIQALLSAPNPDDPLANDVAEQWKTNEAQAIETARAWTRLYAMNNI

## O=C(CCCCCN1C(=O)c2ccccc2C1=O)NCc1ccccn1
  IC50: inactive

## Cc1ccc(NC(=O)C2CCN(c3ncnc4c3nc3n4CCCCC3)CC2)cc1Cl
  IC50: 3.62 µM

## CCCCOC(=O)c1cccc(NC(=O)CCCCCN2C(=O)c3ccccc3C2=O)c1
  IC50: inactive

## Cc1ccc(C)c(CN2CCC(CNC(=O)C3CCCN(c4ncnc5c4nc4n5CCCCC4)C3)CC2)c1 (stereo unspecified)
  IC50: 3.42 µM

## O=C1c2cccc3cccc(c23)C(=O)N1CCN1CCN(CC(O)COc2ccc(Cl)cc2)CC1 (stereo unspecified)
  IC50: 0.9 µM

## COc1ccc(CCNC(=O)CCCCCN2C(=O)c3ccccc3C2=O)cc1
  IC50: inactive

## COc1cc2nc(N(CCCN(C)C)C(=O)c3ccc(S(=O)(=O)N4CCc5ccccc5C4)cc3)sc2cc1OC
  IC50: 3.79 µM

## O=C1c2cccc3cccc(c23)N1Cc1ccc(F)cc1
  IC50: 3.57 µM

## O=C(CCCCCN1C(=O)c2cccc3cccc(c23)C1=O)NCCO
  IC50: 12.7 µM

## CC(=O)c1ccc(OCC(O)CN2CCN(CCN3C(=O)c4cccc5cccc(c45)C3=O)CC2)cc1 (stereo unspecified)
  IC50: 2.28 µM

## Cc1cc(NC(=O)Cn2c(=O)n(CCCCC(=O)NC3CCN(Cc4ccccc4)CC3)c(=O)c3ccccc32)n[nH]1
  IC50: 12.9 µM

## O=C(CCCCCN1C(=O)c2ccccc2C1=O)N1CCN(c2ccc([N+](=O)[O-])cc2)CC1
  IC50: > 100 µM (inactive)

## C=CCc1ccccc1OCC(O)CN1CCN(CCN2C(=O)c3cccc4cccc(c34)C2=O)CC1 (stereo unspecified)
  IC50: 11.7 µM

## CCOC(=O)c1c(NC(=O)COc2ccccc2C#N)sc2c1CC(C)(C)NC2(C)C
  IC50: 2.35 µM

## CCOc1ccc2nc(N(CCCN(C)C)C(=O)c3ccc(C(=O)c4ccccc4)cc3)sc2c1
  IC50: 3.4 µM

## O=C(NCC1CCN(Cc2ccccc2F)CC1)C1CCCN(c2ncnc3c2nc2n3CCCCC2)C1 (stereo unspecified)
  IC50: 10.7 µM

## CN(C)CCCN(C(=O)c1ccc(S(=O)(=O)N2CCc3ccccc3C2)cc1)c1nc2ccc(F)cc2s1
  IC50: 8.1 µM

## CN(C)CCCN(C(=O)c1ccc(S(=O)(=O)N2CCCCCC2)cc1)c1nc2ccc(Br)cc2s1
  IC50: 5.92 µM

## Cc1cc(C)cc(OCCNC(=O)CCCCCN2C(=O)c3ccccc3C2=O)c1
  IC50: > 100 µM (inactive)

## O=C1c2cccc3cccc(c23)C(=O)N1CCN1CCN(CC(O)COc2ccc3c(c2)OCO3)CC1 (stereo unspecified)
  IC50: 6.68 µM

## CCCOC(=O)c1ccc(NC(=O)CCCCCN2C(=O)c3ccccc3C2=O)cc1
  IC50: > 100 µM (inactive)

## COc1cccc2sc(N(CCCN(C)C)C(=O)c3ccc(S(=O)(=O)N4CCc5ccccc5C4)cc3)nc12
  IC50: 1.85 µM

## Cc1ccc2nc(N(CCCN(C)C)C(=O)c3ccc4c(c3)CCCC4)sc2c1
  IC50: 10.5 µM

## Cc1ccccc1CN1CCC(CNC(=O)C2CCCN(c3ncnc4c3nc3n4CCCCC3)C2)CC1 (stereo unspecified)
  IC50: 4.69 µM

## O=C(C1CCN(c2ncnc3c2nc2n3CCCCC2)CC1)N1CCC(Cc2ccccc2)CC1
  IC50: 15 µM

## COc1ccc2sc(N(CCCN(C)C)C(=O)c3ccc(S(=O)(=O)N4CCc5ccccc5C4)cc3)nc2c1
  IC50: 5.62 µM

## Cc1ccccc1OCC(O)CN1CCN(CCN2C(=O)c3cccc4cccc(c34)C2=O)CC1 (stereo unspecified)
  IC50: 12.8 µM

## O=C(Nc1ccc(F)c(Cl)c1)C1CCN(c2ncnc3c2nc2n3CCCCC2)CC1
  IC50: 6.08 µM

## O=C(CCCn1c(=O)c2ccccc2n(Cc2cccc([N+](=O)[O-])c2)c1=O)NC1CCN(Cc2ccccc2)CC1
  IC50: 0.34 µM

## CN(C)CCCN(C(=O)c1ccc(C(=O)c2ccccc2)cc1)c1nc2cc3c(cc2s1)OCO3
  IC50: 6.57 µM

## COc1ccc(-c2oc3ncnc(N)c3c2-c2ccccc2)cc1
  IC50: 2.06 µM

## COc1ccccc1NC(=S)NC(=O)CCCCCN1C(=O)c2ccccc2C1=O
  IC50: > 100 µM (inactive)

## CCOc1ccc(NC(=O)Cn2c(=O)n(CCCC(=O)NC3CCN(Cc4ccccc4)CC3)c(=O)c3ccccc32)cc1
  IC50: 3.06 µM

## COc1ccc(OC)c2sc(N(CCCN(C)C)C(=O)c3ccc(S(=O)(=O)N4CCc5ccccc5C4)cc3)nc12
  IC50: 0.79 µM

## O=C(C1COc2ccccc2O1)N1CCN(CCN2C(=O)c3cccc4cccc(c34)C2=O)CC1 (stereo unspecified)
  IC50: > 100 µM (inactive)

## Cc1[nH]c2c(Cl)c(Cl)ccc2c1CCNC(=O)CCCCCN1C(=O)c2ccccc2C1=O
  IC50: 0.67 µM

## CCN(Cc1ccccc1)S(=O)(=O)c1ccc(C(=O)N(CCCN(C)C)c2nc3cc(C)cc(C)c3s2)cc1
  IC50: 4.07 µM

## Cc1cccc(OCC(O)CN2CCN(CCN3C(=O)c4cccc5cccc(c45)C3=O)CC2)c1C (stereo unspecified)
  IC50: 4.76 µM

## O=C(CCCn1c(=O)c2ccccc2n(Cc2ccc(Cl)cc2)c1=O)NC1CCN(Cc2ccccc2)CC1
  IC50: 0.35 µM

## CCC1CCCCN1CCCNC(=O)C1CCN(c2ncnc3c2nc2n3CCCCC2)CC1 (stereo unspecified)
  IC50: 7.28 µM

## CN(C)CCCN(C(=O)c1ccc(S(=O)(=O)N(C)Cc2ccccc2)cc1)c1nc2cc3c(cc2s1)OCO3
  IC50: 2.53 µM

## Cc1ccccc1NC(=S)NC(=O)CCCCCN1C(=O)c2ccccc2C1=O
  IC50: > 100 µM (inactive)

## COc1ccc(C(=O)Nn2c(C)nc3ccccc3c2=O)cc1
  IC50: 2.36 µM

## CC(NC(=O)CCCCCN1C(=O)c2cccc([N+](=O)[O-])c2C1=O)c1ccccc1 (stereo unspecified)
  IC50: inactive

## COc1ccc(CCNC(=O)CCCCCN2C(=O)c3ccccc3C2=O)cc1OC
  IC50: inactive

## N#Cc1ccccc1Cn1c(=O)n(CCCC(=O)NC2CCN(Cc3ccccc3)CC2)c(=O)c2ccccc21
  IC50: 0.63 µM

## COc1cccc(OCC(O)CN2CCN(CCN3C(=O)c4cccc5cccc(c45)C3=O)CC2)c1 (stereo unspecified)
  IC50: 9.98 µM and 9.03 µM

## CN1CCN(CCCNC(=O)c2ccc(/C=C3\Oc4ccccc4N(Cc4ccc(Cl)cc4)C3=O)cc2)CC1
  IC50: 4.33 µM

## O=C1c2cccc3cccc(c23)C(=O)N1CCN1CCN(CC(O)COc2ccc(C3CCCCC3)cc2)CC1 (stereo unspecified)
  IC50: 6.02 µM

## O=C(CCCCCN1C(=O)c2ccccc2C1=O)NCc1ccccc1
  IC50: 15.8 µM

## O=C(C1CCN(c2ncnc3c2nc2n3CCCCC2)CC1)N1CCN(Cc2ccccc2)CC1
  IC50: 6.45 µM

## COc1ccc2sc(N(CCCN(C)C)C(=O)c3ccc(S(=O)(=O)N(C)Cc4ccccc4)cc3)nc2c1
  IC50: 5.89 µM

## Cc1ccc2nc(N(CCCN(C)C)C(=O)c3ccc(S(=O)(=O)N4CCc5ccccc5C4)cc3)sc2c1
  IC50: 4.83 µM

## COc1ccc(NC(=O)CCCCCN2C(=O)c3cccc([N+](=O)[O-])c3C2=O)cc1
  IC50: > 100 µM (inactive)

## CN(CCNC(=O)C1CCN(c2ncnc3c2nc2n3CCCCC2)CC1)Cc1ccccc1
  IC50: 1.65 µM

## COc1ccc(COCC(O)CN2CCC(CN3C(=O)c4cccc5cccc(c45)C3=O)CC2)cc1OC (stereo unspecified)
  IC50: 5.6 µM

## NNC(=O)c1ccc(CN2C(=O)c3cccc4cccc2c34)cc1
  IC50: 1.78 µM

## CCOc1cccc2sc(N(CCCN(C)C)C(=O)c3ccc(S(=O)(=O)N(C)Cc4ccccc4)cc3)nc12
  IC50: 4.3 µM

## Cc1cccc(C)c1NC(=O)Cn1c(=O)n(CCCC(=O)NC2CCN(Cc3ccccc3)CC2)c(=O)c2ccccc21
  IC50: 1.69 µM

## Cc1ccc2c(c1)C1CN(C)CCC1N2C(=O)CCCN1C(=O)c2cccc3cccc(c23)C1=O (stereo unspecified)
  IC50: 3.92 µM

## O=C(c1ccc(S(=O)(=O)N2CCCC2)cc1)N1CCC(CN2C(=O)c3cccc4cccc(c34)C2=O)CC1
  IC50: 4.19 µM

## O=C(NCC1CCN(Cc2ccc(Cl)cc2)CC1)C1CCCN(c2ncnc3c2nc2n3CCCCC2)C1 (stereo unspecified)
  IC50: 4.33 µM

## CC(C)(C)c1ccc(OCC(O)CN2CCN(CCN3C(=O)c4cccc5cccc(c45)C3=O)CC2)cc1 (stereo unspecified)
  IC50: 9.47 µM

## O=C(CCCCn1c(=O)c2ccccc2n(Cc2ccccc2F)c1=O)NC1CCN(Cc2ccccc2)CC1
  IC50: 2.99 µM

## O=C(CCCCCN1C(=O)c2ccccc2C1=O)Nc1ccc(S(=O)(=O)Nc2ncccn2)cc1
  IC50: > 100 µM (inactive)

## CCOc1cccc2sc(N(CCCN(C)C)C(=O)c3ccc(S(=O)(=O)N(CC)Cc4ccccc4)cc3)nc12
  IC50: 6.56 µM

## Cc1cc(C)c2sc(N(CCCN(C)C)C(=O)c3ccc(S(=O)(=O)N(C)Cc4ccccc4)cc3)nc2c1
  IC50: 1.51 µM

## O=C(NCCCN1CCCCC1)C1CCN(c2ncnc3c2nc2n3CCCCC2)CC1
  IC50: 4.58 µM

## O=C(CCCCCN1C(=O)c2ccccc2C1=O)Nc1ccc(S(=O)(=O)N2CCCCC2)cc1
  IC50: 0.47 µM

## CN(C)CCCN(C(=O)c1ccc(S(=O)(=O)N2CCCCC2)cc1)c1nc2cc3c(cc2s1)OCO3
  IC50: 8.13 µM

## CN(C)CCCn1c(SCC(=O)Nc2nc(-c3cccc(Br)c3)cs2)nc2ccccc2c1=O
  IC50: 4.18 µM

## CC1CCCCN1C(=O)C1CCN(c2ncnc3c2nc2n3CCCCC2)CC1 (stereo unspecified)
  IC50: inactive

## O=C(CCCCCN1C(=O)c2ccccc2C1=O)NCc1ccco1
  IC50: 18.1 µM

## CC1(C)Cc2c(sc(NC(=O)COc3ccc(Cl)cc3Cl)c2C(N)=O)C(C)(C)N1
  IC50: 1.66 µM

## O=C1c2cccc3cccc(c23)C(=O)N1CCN1CCN(CC(O)COCc2ccc(Cl)cc2)CC1 (stereo unspecified)
  IC50: 1.07 µM

## CCN(Cc1ccccc1)S(=O)(=O)c1ccc(C(=O)N(CCCN(C)C)c2nc3cc4c(cc3s2)OCCO4)cc1
  IC50: 1.51 µM

## CCc1ccc(OCC(O)CN2CCC(CN3C(=O)c4cccc5cccc(c45)C3=O)CC2)cc1 (stereo unspecified)
  IC50: 8.76 µM

## O=C(NCC1CCN(Cc2ccc(F)cc2)CC1)C1CCCN(c2ncnc3c2nc2n3CCCCC2)C1 (stereo unspecified)
  IC50: 3.53 µM

## COC(=O)C1=C(NC(=O)CCCCCN2C(=O)c3ccccc3C2=O)SC2CCCC12 (stereo unspecified)
  IC50: > 100 µM (inactive)

## COc1cccc(NC(=O)CCCCCN2C(=O)c3cccc([N+](=O)[O-])c3C2=O)c1
  IC50: > 100 µM (inactive)

## COC(=O)c1ccc(OCC(O)CN2CCN(CCN3C(=O)c4cccc5cccc(c45)C3=O)CC2)cc1 (stereo unspecified)
  IC50: 4.61 µM

## COc1cc(/C=C/c2cc[n+](C)cc2)ccc1OCC(=O)Nc1ccc(Cl)c(Cl)c1
  IC50: 3.5 µM

## CCCN1CCN(C(=O)C2CCN(c3ncnc4c3nc3n4CCCCC3)CC2)CC1
  IC50: 3.42 µM

## O=C(c1ccco1)N1CCN(C(=O)C2CCN(c3ncnc4c3nc3n4CCCCC3)CC2)CC1
  IC50: inactive

## CC(=O)Nc1ccc(OCC(O)CN2CCN(CCN3C(=O)c4cccc5cccc(c45)C3=O)CC2)cc1 (stereo unspecified)
  IC50: 17.4 µM

## Cc1cc(NS(=O)(=O)c2ccc(NC(=O)CCCCCN3C(=O)c4ccccc4C3=O)cc2)nc(C)n1
  IC50: > 100 µM (inactive)

## O=C(C1CCN(c2ncnc3c2nc2n3CCCCC2)CC1)N1CCN(c2ccccc2)CC1
  IC50: inactive

## O=C(CCCCCN1C(=O)c2ccccc2C1=O)Nc1nc(C2CC2)cs1
  IC50: > 100 µM (inactive)

## O=C(CCCCCN1C(=O)c2cccc3cccc(c23)C1=O)NCc1cccnc1
  IC50: 5.08 µM

## O=C(C1CCN(c2ncnc3c2nc2n3CCCCC2)CC1)N1CCN(c2ccccn2)CC1
  IC50: inactive

## Cc1c(NC(=O)CCCN2C(=O)c3cccc4cccc(c34)C2=O)c(=O)n(-c2ccccc2)n1C
  IC50: 2.65 µM
